Assay: Stability of cannabinoid compounds and Vitamin E components in Beverage 1 (AB White) by LCMSMS
Format: physicochemical
Settings: for Stability of Plant-Derived Cannabinoid Compounds in AB White, 8° C.: AB White stored at 8° C.; for Stability of Plant-Derived Cannabinoid Compounds in AB White, 21-25° C.: AB White stored at 21-25° C.

SMILES: CCCCCc1cc(O)c2c(c1)OC1(C)CCC3C1C2C3(C)C (stereo not drawn) [CBL, cannabicyclol]
- Stability of Plant-Derived Cannabinoid Compounds in AB White, 8° C. (0 days): 0.550 µg/mL
- Stability of Plant-Derived Cannabinoid Compounds in AB White, 8° C. (1 days): 0.541 µg/mL
- Stability of Plant-Derived Cannabinoid Compounds in AB White, 8° C. (2 days): 0.542 µg/mL
- Stability of Plant-Derived Cannabinoid Compounds in AB White, 8° C. (3 days): 0.553 µg/mL
- Stability of Plant-Derived Cannabinoid Compounds in AB White, 8° C. (5 days): 0.552 µg/mL
- Stability of Plant-Derived Cannabinoid Compounds in AB White, 8° C. (8 days): 0.537 µg/mL
- Stability of Plant-Derived Cannabinoid Compounds in AB White, 8° C. (9 days): 0.535 µg/mL
- Stability of Plant-Derived Cannabinoid Compounds in AB White, 8° C. (10 days): 0.544 µg/mL
- Stability of Plant-Derived Cannabinoid Compounds in AB White, 8° C. (11 days): 0.544 µg/mL
- Stability of Plant-Derived Cannabinoid Compounds in AB White, 8° C. (12 days): 0.553 µg/mL
- Stability of Plant-Derived Cannabinoid Compounds in AB White, 8° C. (15 days): 0.534 µg/mL
- Stability of Plant-Derived Cannabinoid Compounds in AB White, 8° C. (16 days): 0.546 µg/mL
- Stability of Plant-Derived Cannabinoid Compounds in AB White, 8° C. (17 days): 0.540 µg/mL
- Stability of Plant-Derived Cannabinoid Compounds in AB White, 8° C. (18 days): 0.536 µg/mL
- Stability of Plant-Derived Cannabinoid Compounds in AB White, 8° C. (19 days): 0.537 µg/mL
- Stability of Plant-Derived Cannabinoid Compounds in AB White, 8° C. (22 days): 0.555 µg/mL
- Stability of Plant-Derived Cannabinoid Compounds in AB White, 8° C. (23 days): 0.545 µg/mL
- Stability of Plant-Derived Cannabinoid Compounds in AB White, 8° C. (24 days): 0.548 µg/mL
- Stability of Plant-Derived Cannabinoid Compounds in AB White, 8° C. (25 days): 0.540 µg/mL
- Stability of Plant-Derived Cannabinoid Compounds in AB White, 8° C. (26 days): 0.534 µg/mL
- Stability of Plant-Derived Cannabinoid Compounds in AB White, 8° C. (29 days): 0.547 µg/mL
- Stability of Plant-Derived Cannabinoid Compounds in AB White, 8° C. (30 days): 0.544 µg/mL
- Stability of Plant-Derived Cannabinoid Compounds in AB White, 8° C. (60 days): 0.543 µg/mL
- Stability of Plant-Derived Cannabinoid Compounds in AB White, 8° C. (90 days): 0.527 µg/mL
- Stability of Plant-Derived Cannabinoid Compounds in AB White, 8° C. (120 days): 0.534 µg/mL
- Stability of Plant-Derived Cannabinoid Compounds in AB White, 8° C. (150 days): 0.540 µg/mL
- Stability of Plant-Derived Cannabinoid Compounds in AB White, 8° C. (180 days): 0.542 µg/mL
- Stability of Plant-Derived Cannabinoid Compounds in AB White, 8° C. (210 days): 0.534 µg/mL
- Stability of Plant-Derived Cannabinoid Compounds in AB White, 8° C. (240 days): 0.535 µg/mL
- Stability of Plant-Derived Cannabinoid Compounds in AB White, 8° C. (270 days): 0.539 µg/mL
- Stability of Plant-Derived Cannabinoid Compounds in AB White, 8° C. (300 days): 0.526 µg/mL
- Stability of Plant-Derived Cannabinoid Compounds in AB White, 8° C. (330 days): 0.543 µg/mL
- Stability of Plant-Derived Cannabinoid Compounds in AB White, 8° C. (360 days): 0.533 µg/mL
- Stability of Plant-Derived Cannabinoid Compounds in AB White, 8° C. (390 days): 0.535 µg/mL
- Stability of Plant-Derived Cannabinoid Compounds in AB White, 8° C. (420 days): 0.526 µg/mL
- Stability of Plant-Derived Cannabinoid Compounds in AB White, 8° C. (450 days): 0.532 µg/mL
- Stability of Plant-Derived Cannabinoid Compounds in AB White, 8° C. (480 days): 0.521 µg/mL
- Stability of Plant-Derived Cannabinoid Compounds in AB White, 8° C. (510 days): 0.514 µg/mL
- Stability of Plant-Derived Cannabinoid Compounds in AB White, 8° C. (540 days): 0.514 µg/mL
- Stability of Plant-Derived Cannabinoid Compounds in AB White, 8° C. (570 days): 0.503 µg/mL
- Stability of Plant-Derived Cannabinoid Compounds in AB White, 21-25° C. (0 days): 0.550 µg/mL
- Stability of Plant-Derived Cannabinoid Compounds in AB White, 21-25° C. (1 days): 0.539 µg/mL
- Stability of Plant-Derived Cannabinoid Compounds in AB White, 21-25° C. (2 days): 0.540 µg/mL
- Stability of Plant-Derived Cannabinoid Compounds in AB White, 21-25° C. (3 days): 0.543 µg/mL
- Stability of Plant-Derived Cannabinoid Compounds in AB White, 21-25° C. (5 days): 0.530 µg/mL
- Stability of Plant-Derived Cannabinoid Compounds in AB White, 21-25° C. (8 days): 0.542 µg/mL
- Stability of Plant-Derived Cannabinoid Compounds in AB White, 21-25° C. (9 days): 0.535 µg/mL
- Stability of Plant-Derived Cannabinoid Compounds in AB White, 21-25° C. (10 days): 0.546 µg/mL
- Stability of Plant-Derived Cannabinoid Compounds in AB White, 21-25° C. (11 days): 0.552 µg/mL
- Stability of Plant-Derived Cannabinoid Compounds in AB White, 21-25° C. (12 days): 0.529 µg/mL
- Stability of Plant-Derived Cannabinoid Compounds in AB White, 21-25° C. (15 days): 0.548 µg/mL
- Stability of Plant-Derived Cannabinoid Compounds in AB White, 21-25° C. (16 days): 0.537 µg/mL
- Stability of Plant-Derived Cannabinoid Compounds in AB White, 21-25° C. (17 days): 0.554 µg/mL
- Stability of Plant-Derived Cannabinoid Compounds in AB White, 21-25° C. (18 days): 0.554 µg/mL
- Stability of Plant-Derived Cannabinoid Compounds in AB White, 21-25° C. (19 days): 0.552 µg/mL
- Stability of Plant-Derived Cannabinoid Compounds in AB White, 21-25° C. (22 days): 0.547 µg/mL
- Stability of Plant-Derived Cannabinoid Compounds in AB White, 21-25° C. (23 days): 0.530 µg/mL
- Stability of Plant-Derived Cannabinoid Compounds in AB White, 21-25° C. (24 days): 0.546 µg/mL
- Stability of Plant-Derived Cannabinoid Compounds in AB White, 21-25° C. (25 days): 0.532 µg/mL
- Stability of Plant-Derived Cannabinoid Compounds in AB White, 21-25° C. (26 days): 0.549 µg/mL
